Columns and labels:
[1] = Liposome destabilization test in reductive environment (DTT, TNS fluorescence); assay type: physicochemical; details: 10 mM DTT, 37° C., 0-24 hr; TNS at pH 4.0
Protocol: DTT was added to various MEND solutions to a final concentration of 10 mM and the mixtures were stood at 37° C. The fluorescence intensity was measured using TNS (6-(p-Toludino)-2-Naphthalene Sulfonic acid) at the time points of 0, 1, 2, 4, 8, 24 hr later. The MEND solutions were diluted to 0.5 mM. The 0.5 mM MEND solution (12 μL), 20 mM citrate buffer (186 μL, containing 150 mM NaCl, acidic pH (pH 4.0)), and 0.6 mM TNS (2 μL) were added to a 96-well plate for fluorescence measurement (Nunc), and the fluorescence intensity was measured at excitation wavelength 321 nm, detection wavelength 447 nm, at 37° C. As a control, MEND solution added with the same amount of 10 mM HEPES buffer free of DTT at 0 hr and stood for each time at 37° C. was used, and the fluorescence intensity was measured using TNS by the same treatment. The fluorescence intensity under reductive environment was divided by the fluorescence intensity of the control and used as an index of the destabilization of lipid membrane.
As a result, attenuation of TNS fluorescence due to the DTT treatment was not observed in DODAP and B-2-1 not having a disulfide bond. […] TNS is adsorbed, under an acidic environment of pH 4.0, to a particle surface having a positive surface potential via electrostatically interactions, and emits fluorescence according to the liposoluble environment of the lipid structure part of a liposome.

HT1080 cells [2] = assay: Influence of endosome/lysosome acidification inhibition (bafilomycin A1) on gene expression activity; assay type: cell-based; details: 0.5 μM bafilomycin A1
Protocol: Using B-2 (Example 1), B-2-1 (Comparative Example 1), and DODAP (Comparative Example 2) as cationic lipids, MENDs having a composition of cationic lipid:SOPE:Chol=5:3:2 were prepared by the method described in [Experimental Example 1] (2). For the preparation, PEG2000-DMG was used as PEG lipid, and MEND solutions corresponding to 0.55 mM of the lipid concentration were prepared. For cationic MEND, lipids having a composition of DOTAP (Comparative Example 3):DOPE:Chol:=3:4:3 were used, and the cationic MEND was prepared according to the method described in [Experimental Example 1] (3).
HT1080 cells were plated on a 24-well plate at 4×10^4 cell/500 μL/well 24 hr before, bafilomycin A1 was added at 0.5 μM 30 min before for a pre-treatment. Various MENDs were diluted with DMEM (FBS 10%+) to a pDNA amount of 0.4 μg/500 μL/well, bafilomycin A1 was added at 0.5 μM, and transfection was performed. 3 hr later, the MEND solution was removed, and DMEM (FBS 10%+) was added at 500 μL/well to change the medium. 24 hr later, the cells were washed with PBS(−) (500 μL), 1× Lysis buffer was added to each well by 75 μL, and the mixture was stood at −80° C. for 30 min or longer. The frozen 24-well plate was thawed on ice, the cells were detached with a cell scraper, and the total amount thereof was transferred into an Eppendorf tube and centrifuged under the conditions of 15000 rpm, 4° C., 5 min. The supernatant (50 μL) was recovered in a different Eppendorf tube, and used for luciferase assay and BCA assay. The gene expression was evaluated by the method described in [Example 4] (2).

HT1080 cells [3] = assay: Intracellular kinetics: decapsulation of pDNA from MEND (confocal microscopy); assay type: cell-based; details: 3 hr after transfection
Protocol: For MEND preparation, the Rhodamine-labeled pDNA prepared by the method of [Experimental Example 1] (4) was used. In addition, the fluorescence label of the lipid constituting MEND was measured by the method described in [Experimental Example 1] (3). MENDs having a composition of cationic lipid:SOPE:Chol=5:3:2 were prepared by the method described in [Experimental Example 1] (2). For the preparation, PEG2000-DMG was used as PEG lipid, and MEND solutions corresponding to 0.55 mM of the lipid concentration were prepared. For cationic MEND, a lipid having a composition of DOTAP:DOPE:Chol:=3:4:3 was used, and the cationic MEND was prepared according to the method described in [Experimental Example 1] (3). […]
HT1080 cells were plated on a glass bottom dish at 1×10^5 cells/2 mL/dish 24 hr before. B-2 MEND was diluted with Krebs buffer to achieve pDNA 8 μg/1 mL Krebs buffer/dish. As for B-2-1 or DOTAP MEND, MEND was diluted with Krebs buffer to achieve pDNA 1.6 μg/1 mL Krebs buffer/dish and transfected. After 2.5 hr, Hoechst 33342 was added at 1 μL/dish and, 30 min later, the cells were washed twice with heparin solution (20 units/mL, 2 mL), Krebs buffer (1 mL) was added, and the cells were observed by a confocal laser scan microscope.
Rhodamine-labeled pDNA, lipid membrane of MEND and nucleus were shown in pseudo colors of red, green and blue, respectively.

| Compound | attenuation of TNS fluorescence due to DTT treatment (destabilization of lipid membrane) [1] | gene expression activity under bafilomycin A1 (HT1080 cells [2]) | gene decapsulation (colocalization of pDNA red and MEND lipid green) (HT1080 cells [3]) |
| --- | --- | --- | --- |
| CCCCCCCC/C=C\CCCCCCCC(=O)OCC(CN(C)C)OC(=O)CCCCCCC/C=C\CCCCCCCC (stereo not shown) [DODAP, reference compound] | not observed | showed a decrease in the gene expression activity |  |
| CCCCCCCC/C=C\CCCCCCCC(=O)OCC(C[N+](C)(C)C)OC(=O)CCCCCCC/C=C\CCCCCCCC (stereo not shown) [DOTAP, reference compound] |  | did not show a decrease in the gene expression activity | Red dots were notable |
| CCCCCCCCCCCCCC(=O)OCCCN(C)CCCCCCN(C)CCCOC(=O)CCCCCCCCCCCCC [Example B-2-1, reference compound] | not observed | did not show a decrease in the gene expression activity | clear colocalization of red and green |
| CCCCCCCCCCCCCC(=O)OCCCN(C)CCSSCCN(C)CCCOC(=O)CCCCCCCCCCCCC [Example B-2] | disappearance of TNS fluorescence in a time-dependent manner | showed a decrease in the gene expression activity | Red dots were notable |

— patent US9708628B2, “Cationic lipid having improved intracellular kinetics” (NOF CORPORATION, priority 2011, dated 2017)
